{"source": "paper PMC2954223", "about": "“Structure of a tryptophanyl-tRNA synthetase containing an iron–sulfur cluster” (Acta Crystallographica Section F: Structural Biology and …, 2010)", "key": {"[1]": {"target": "T1, TmTrpRS (TM0492) (Thermotoga maritima, UniProt Q9WYW2)", "T1 construct": "gene trpS; full-length with noncleavable N-terminal tag MGSDKIHHHHHH (kept in crystal), expressed in E. coli DL41; native TTG start codon lies in forward primer after the tag; model residues 0-328, 113-119 disordered; homodimer", "T1 sequence (Q9WYW2 1-328)": "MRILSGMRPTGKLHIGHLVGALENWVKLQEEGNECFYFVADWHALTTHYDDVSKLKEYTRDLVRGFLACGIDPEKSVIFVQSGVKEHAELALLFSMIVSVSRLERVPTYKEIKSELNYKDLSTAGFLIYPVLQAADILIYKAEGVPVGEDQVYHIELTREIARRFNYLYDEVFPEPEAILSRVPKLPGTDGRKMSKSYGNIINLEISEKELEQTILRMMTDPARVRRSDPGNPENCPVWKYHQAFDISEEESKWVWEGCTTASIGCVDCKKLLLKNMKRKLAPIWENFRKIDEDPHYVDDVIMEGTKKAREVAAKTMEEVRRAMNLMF", "assay": "X-ray crystal structure, […] Å", "type": "binding", "conditions": "active site (Rossmann-fold domain); endogenously bound, not added; crystallised at pH 6.5, 277 K"}, "[2]": {"target": "T1, TmTrpRS (TM0492)", "assay": "X-ray crystal structure, […] Å; X-ray fluorescence scan; mass spectrometry", "type": "binding", "conditions": "TAB domain; chelated by Cys236, Cys259, Cys266, Cys269; co-purified; crystallised at pH 6.5, 277 K"}}, "data": [{"smiles": "N[C@@H](Cc1c[nH]c2ccccc12)C(=O)O", "note": "[L-tryptophan]", "values": [{"measurement": "X-ray crystal structure, 2.50 Å", "setting": "[1]", "value": "the structure revealed a bound L-tryptophan molecule in the Trp-binding pocket of the active site"}]}, {"smiles": "[S]12[Fe]3[S]4[Fe]1[S]1[Fe]2[S]3[Fe]41", "note": "[[4Fe–4S] cluster]", "values": [{"measurement": "X-ray crystal structure, 2.50 Å; X-ray fluorescence scan; mass spectrometry", "setting": "[2]", "value": "The [4Fe–4S] cluster is chelated by the side chains of Cys236, Cys259, Cys266 and Cys269"}]}]}
